Measurements published in patent US20190062260A1, “ANTIMICROBIAL COMPOSITIONS, METHODS OF MAKING, AND METHODS OF USE” (priority 2017, published 2019).

Experiment: Degradation of compound and release of acrolein, tracked via NMR spectroscopy
Type: physicochemical
Conditions: 50 mM in deuterated water; for % acrolein generated pH 3, 3 days / % degraded pH 3, 3 days: pH 3 (adjusted with deuterium chloride); for % acrolein generated pH 3, 3 days / % degraded pH 3, 3 days / % acrolein generated pH 7, 7 days / % degraded pH 7, 7 days: 25 degrees Celsius
Procedure: Degradation of Compound and Release of Acrolein
n=3, X as defined in the table. Measured at 25 degrees Celsius (room temperature), tracked via NMR spectroscopy. All compounds were prepared at 50 mM in deuterated water, pH adjusted with deuterium chloride.
n=3, X is Br. Measured at 25 or 70 degrees Celsius, tracked via NMR spectroscopy. All compounds were prepared at 50 mM in deuterated water at pH 7. Measurements were made after 4 hours.

SMILES | % acrolein generated pH 3, 3 days [%] | % degraded pH 3, 3 days [%] | % acrolein generated pH 7, 7 days [%] | % degraded pH 7, 7 days [%] | % acrolein generated 25° C. (25° C., pH 7, after 4 hours) [%] | % degraded 25° C. (25° C., pH 7, after 4 hours) [%] | % acrolein generated 70° C. (70° C., pH 7, after 4 hours) [%] | % degraded 70° C. (70° C., pH 7, after 4 hours) [%]
COCCOCCOCCOC(CCCl)OCCOCCOCCOC [Compound 1] | 1 | 50 | 0 | 0 |  |  |  | 
COCCOCCOCCOC(CCBr)OCCOCCOCCOC [Compound 3] | 8 | 100 | 12 | 95 | 0 | 0 | 40 | 85
